Data published in US20230263822A1, “MODULATION OF FACTOR 11 EXPRESSION” (Ionis Pharmaceuticals, Inc., priority 2008, published 2023).
Strand notation (5' to 3'): a small letter for the sugar, then the base; units joined by * are phosphorothioate-linked, units joined directly phosphodiester-linked; [ ] holds rarer units or linkages, { } end groups; capitals alone tell only the bases. e = 2'-O-(2-methoxyethyl) (MOE); [5mC] = 5-methylcytosine; d = 2'-deoxy (DNA)

Columns and labels:
[1] = Hematology assays in cynomolgus monkeys (Example 46); assay type: in vivo
Description: Groups, each consisting of two male and two female monkeys, were injected subcutaneously with 25 mg/kg of ISIS 416850, ISIS 449709, ISIS 445522, ISIS 449710, ISIS 449707, ISIS 449711, ISIS 449708, 416858, and ISIS 445531. Antisense oligonucleotide was administered to the monkeys at 25 mg/kg three times per week for week 1 and 25 mg/kg twice per week for weeks 2 to 8. A control group, consisting of two male and two female monkeys was injected subcutaneously with PBS according to the same dosing regimen. Body weights were taken 14 days and 7 days before the start of treatment and were then measured weekly throughout the treatment period. Blood samples were collected 14 days and 5 days before the start of treatment and subsequently several times during the dosing regimen for PT and aPTT measurements, and measurement of various hematologic factors. On day 55, the monkeys were euthanized by exsanguination while under deep anesthesia, and organs harvested for further analysis.

[2] = Tolerability in CD1 mice: kidney function, BUN (Example 41); settings: 50 mg/kg s.c. twice per week for 6 weeks, plasma

Question: Which HCT ([1]; Day 17) does the source give for “ISIS 445522: 5-8-5 or 6-8-6 MOE microwalk gapmer (Table 44) (antisense eG*e[5mC]*eA*e[5mC]*eA*dG*dT*dT*dT*d[5mC]*dT*dG*dG*e[5mC]*eA*eG*eG*e[5mC])” here?
Answer: 41%

Question: And the MCH ([1]; Day 17)?
Answer: 22.8 pg

Question: And the MCHC ([1]; Day 17)?
Answer: 30.9 g/dL

Question: What about the MCV ([1]; Day 17) of the same substance?
Answer: 74 fL

Question: And the RBC count ([1]; Day 17)?
Answer: 5.6e+06 µL⁻¹

Question: What about the WBC count ([1]; Day 17) of the same substance?
Answer: 11000 µL⁻¹

Question: And the hemoglobin content ([1]; Day 17)?
Answer: 12.7 g/dL

Question: And the monocytes ([1]; Day 17)?
Answer: 3.6%

Question: What about the neutrophils ([1]; Day 17) of the same substance?
Answer: 81%

Question: What about the platelet count ([1]; Day 17) of the same substance?
Answer: 521 ×100/μL

Question: What about the HCT ([1]; Day 31) of the same substance?
Answer: 43%

Question: And the MCH ([1]; Day 31)?
Answer: 22.4 pg

Question: And the MCHC ([1]; Day 31)?
Answer: 30.0 g/dL

Question: What about the MCV ([1]; Day 31) of the same substance?
Answer: 75 fL

Question: What about the RBC count ([1]; Day 31) of the same substance?
Answer: 5.8e+06 µL⁻¹

Question: What about the WBC count ([1]; Day 31) of the same substance?
Answer: 13000 µL⁻¹

Question: And the hemoglobin content ([1]; Day 31)?
Answer: 12.9 g/dL

Question: What about the monocytes ([1]; Day 31) of the same substance?
Answer: 3.9%

Question: And the neutrophils ([1]; Day 31)?
Answer: 66%

Question: And the platelet count ([1]; Day 31)?
Answer: 425 ×100/μL

Question: And the HCT ([1]; Day 45)?
Answer: 41%

Question: What about the MCH ([1]; Day 45) of the same substance?
Answer: 22.4 pg

Question: And the MCHC ([1]; Day 45)?
Answer: 30.7 g/dL

Question: What about the MCV ([1]; Day 45) of the same substance?
Answer: 73 fL

Question: What about the RBC count ([1]; Day 45) of the same substance?
Answer: 5.7e+06 µL⁻¹

Question: And the WBC count ([1]; Day 45)?
Answer: 10000 µL⁻¹

Question: What about the hemoglobin content ([1]; Day 45) of the same substance?
Answer: 12.6 g/dL

Question: What about the monocytes ([1]; Day 45) of the same substance?
Answer: 4.4%

Question: And the neutrophils ([1]; Day 45)?
Answer: 69%

Question: And the platelet count ([1]; Day 45)?
Answer: 403 ×100/μL

Question: And the HCT ([1]; Day 55)?
Answer: 39%

Question: And the MCH ([1]; Day 55)?
Answer: 22.2 pg

Question: What about the MCHC ([1]; Day 55) of the same substance?
Answer: 31.0 g/dL

Question: What about the MCV ([1]; Day 55) of the same substance?
Answer: 72 fL

Question: What about the RBC count ([1]; Day 55) of the same substance?
Answer: 5.4e+06 µL⁻¹

Question: And the WBC count ([1]; Day 55)?
Answer: 11000 µL⁻¹

Question: And the hemoglobin content ([1]; Day 55)?
Answer: 12.0 g/dL

Question: And the monocytes ([1]; Day 55)?
Answer: 3.0%

Question: What about the neutrophils ([1]; Day 55) of the same substance?
Answer: 125%

Question: And the platelet count ([1]; Day 55)?
Answer: 333 ×100/μL

Question: And the HCT ([1]; Day-5)?
Answer: 42%

Question: What about the MCH ([1]; Day-5) of the same substance?
Answer: 22.5 pg

Question: And the MCHC ([1]; Day-5)?
Answer: 30.4 g/dL

Question: What about the MCV ([1]; Day-5) of the same substance?
Answer: 74 fL

Question: And the RBC count ([1]; Day-5)?
Answer: 5.6e+06 µL⁻¹

Question: What about the WBC count ([1]; Day-5) of the same substance?
Answer: 9000 µL⁻¹

Question: And the hemoglobin content ([1]; Day-5)?
Answer: 12.7 g/dL

Question: And the monocytes ([1]; Day-5)?
Answer: 2.3%

Question: What about the neutrophils ([1]; Day-5) of the same substance?
Answer: 84%

Question: And the platelet count ([1]; Day-5)?
Answer: 512 ×100/μL

Question: What about the HCT ([1]; Day-14) of the same substance?
Answer: 42%

Question: And the MCH ([1]; Day-14)?
Answer: 22.6 pg

Question: And the MCHC ([1]; Day-14)?
Answer: 31.4 g/dL

Question: What about the MCV ([1]; Day-14) of the same substance?
Answer: 72 fL

Question: What about the RBC count ([1]; Day-14) of the same substance?
Answer: 5.9e+06 µL⁻¹

Question: What about the WBC count ([1]; Day-14) of the same substance?
Answer: 10000 µL⁻¹

Question: And the hemoglobin content ([1]; Day-14)?
Answer: 13.3 g/dL

Question: And the monocytes ([1]; Day-14)?
Answer: 2.1%

Question: What about the neutrophils ([1]; Day-14) of the same substance?
Answer: 61%

Question: And the platelet count ([1]; Day-14)?
Answer: 433 ×100/μL

Question: What about the BUN [2] of the same substance?
Answer: 28 mg/dL

Question: Which results are given for “ISIS 445531: 5-8-5 or 6-8-6 MOE microwalk gapmer (Table 44) (antisense eG*eG*e[5mC]*eA*eT*dT*dG*dG*dT*dG*d[5mC]*dA*d[5mC]*eA*eG*eT*eT*eT)”?
Answer: HCT ([1]; Day 17): 43%; MCH ([1]; Day 17): 22.1 pg; MCHC ([1]; Day 17): 29.5 g/dL; MCV ([1]; Day 17): 75 fL; RBC count ([1]; Day 17): 5.8e+06 µL⁻¹; WBC count ([1]; Day 17): 17000 µL⁻¹; hemoglobin content ([1]; Day 17): 12.7 g/dL; monocytes ([1]; Day 17): 3.4%; neutrophils ([1]; Day 17): 85%; platelet count ([1]; Day 17): 380 ×100/μL; HCT ([1]; Day 31): 41%; MCH ([1]; Day 31): 22.0 pg; MCHC ([1]; Day 31): 29.7 g/dL; MCV ([1]; Day 31): 75 fL; RBC count ([1]; Day 31): 5.6e+06 µL⁻¹; WBC count ([1]; Day 31): 17000 µL⁻¹; hemoglobin content ([1]; Day 31): 12.3 g/dL; monocytes ([1]; Day 31): 4.1%; neutrophils ([1]; Day 31): 116%; platelet count ([1]; Day 31): 376 ×100/μL; HCT ([1]; Day 45): 41%; MCH ([1]; Day 45): 21.6 pg; MCHC ([1]; Day 45): 29.0 g/dL; MCV ([1]; Day 45): 75 fL; RBC count ([1]; Day 45): 5.5e+06 µL⁻¹; WBC count ([1]; Day 45): 20000 µL⁻¹; hemoglobin content ([1]; Day 45): 12.0 g/dL; monocytes ([1]; Day 45): 4.4%; neutrophils ([1]; Day 45): 93%; platelet count ([1]; Day 45): 345 ×100/μL; HCT ([1]; Day 55): 41%; MCH ([1]; Day 55): 21.7 pg; MCHC ([1]; Day 55): 29.6 g/dL; MCV ([1]; Day 55): 74 fL; RBC count ([1]; Day 55): 5.6e+06 µL⁻¹; WBC count ([1]; Day 55): 15000 µL⁻¹; hemoglobin content ([1]; Day 55): 12.1 g/dL; monocytes ([1]; Day 55): 4.1%; neutrophils ([1]; Day 55): 91%; platelet count ([1]; Day 55): 319 ×100/μL; HCT ([1]; Day-5): 42%; MCH ([1]; Day-5): 22.2 pg; MCHC ([1]; Day-5): 30.0 g/dL; MCV ([1]; Day-5): 74 fL; RBC count ([1]; Day-5): 5.7e+06 µL⁻¹; WBC count ([1]; Day-5): 15000 µL⁻¹; hemoglobin content ([1]; Day-5): 12.6 g/dL; monocytes ([1]; Day-5): 2.2%; neutrophils ([1]; Day-5): 80%; platelet count ([1]; Day-5): 416 ×100/μL; HCT ([1]; Day-14): 41%; MCH ([1]; Day-14): 22.2 pg; MCHC ([1]; Day-14): 30.9 g/dL; MCV ([1]; Day-14): 72 fL; RBC count ([1]; Day-14): 5.7e+06 µL⁻¹; WBC count ([1]; Day-14): 20000 µL⁻¹; hemoglobin content ([1]; Day-14): 12.6 g/dL; monocytes ([1]; Day-14): 1.3%; neutrophils ([1]; Day-14): 60%; platelet count ([1]; Day-14): 379 ×100/μL; BUN [2]: 27 mg/dL
